We go through one compound from US8513227B2, “Inhibition of inflammatory cytokine production with tanshinones” (The Feinstein Institute for Medical Research, priority 2006, dated 2013).

One experiment relates to HMGB1. Kind of experiment: LPS-induced HMGB1 release in murine peritoneal macrophages. The class given is cell-based. To be noted: data not shown. Here is the method: Cell culture. Murine macrophage-like RAW 264.7 cells were obtained from the American Type Culture Collection (ATCC, Rockville, Md.), and primary peritoneal macrophages were isolated from Balb/C mice (male, 7-8 weeks, 20-25 grams) at 2-3 days after intraperitoneal injection of 2 ml thioglycollate broth (4%) as previously described (Chen et al. 2004; Rendon-Mitchell et al. 2003). Murine macrophages were pre-cultured in RPMI 1640 medium (Gibco BRL, Grand Island, N.Y.) supplemented with 10% fetal bovine serum (FBS) and 2 mmol/L glutamine. […]
LPS stimulation. […] At 16 hours after LPS stimulation, levels of HMGB1 in the culture medium were determined as previously described (Chen et al. 2004; Rendon-Mitchell et al. 2003; Wang et al. 1999).
HMGB1 western blotting analysis. The levels of HMGB1 in the culture medium or serum were determined by western blotting analysis as previously described (Chen et al. 2004; Rendon-Mitchell et al. 2003; Wang et al. 1999). The relative band intensity was quantified using NIH image 1.59 software to determine HMGB1 levels with reference to standard curves generated with purified HMGB1.

For a further experiment, the system named is 62 cytokines. Kind of experiment: Cytokine antibody array of LPS-stimulated macrophage culture medium. The class given is cell-based, murine. On the procedure: Cytokine antibody array. Murine cytokine antibody array (Cat. No. M0308003, RayBiotech Inc., Norcross, Ga., USA), which detects 62 cytokines on one membrane, was used to determine the profile of cytokines in the culture medium following the manufacturer's instructions. Briefly, the membranes were sequentially incubated with equal volume of cell-conditioned culture medium, primary biotin-conjugated antibody, and horseradish peroxidase-conjugated streptavidin. After exposing to X-ray film, the relative signal intensity was determined using the NIH image 1.59 software with reference to the positive controls on the membrane.

For `Cc1c(S(=O)(=O)[O-])oc2c1C(=O)C(=O)c1c-2ccc2c1CCCC2(C)C.[Na+]` [TSNIIA-SS, tanshinone IIA sodium sulfonate], in the experiment on HMGB1, the “effect on LPS-induced HMGB1 release” value is “effectively inhibited”. Also, in the experiment with 62 cytokines (100 μM, cytokine array), the “attenuation of LPS-induced release of IL-1α” value came out at 50±7%, the “attenuation of LPS-induced release of IL-12p70” value is 45±5%, the “attenuation of LPS-induced release of MCP-5” value came to 25±5% and the “attenuation of LPS-induced release of platelet factor 4 (PF-4)” value is 35±6%. Besides, the “effect on release of most cytokines, including IL-6, IL-12p40/p70, KC, MCP-1, MIP-1α, MIP-1γ, MIP-2 and TNF” value in the experiment on 62 cytokines (100 μM, RAW 264.7 cells or primary peritoneal macrophages) is reported as “did not suppress”. Moreover, in the experiment on 62 cytokines (at concentrations that completely abrogate LPS-induced HMGB1 release), the “number of other cytokines whose release is not affected” value is on record as 58 out of 62.
